From publication PMC6940354, “Comparative Assessment of the New PDE7 Inhibitor – GRMS-55 and Lisofylline in Animal Models of Immune-Related Disorders: A PK/PD Modeling Approach” (Pharmaceutical Research, 2020)
In brackets after ≈: the same amount, converted by molar mass. Read-outs that look alike come from different tables or passages of the source.

Tests used:
[1] = Pharmacokinetics in female Lewis rats; format: in vivo, rat; conditions: for fraction of the dose absorbed (F): calculated from Eq. 4
Description: The same vehicles as these in pharmacodynamic studies for each compound and route of administration were used. Rats were implanted with catheters into the jugular vein and after a two-day period they were administered with the investigated compounds by the listed above routes of administration. […] Samples were subsequently centrifuged at 3000 × g for 10 min. Plasma was stored at −80°C until analysis.
A detailed description of these methods has been provided in the supplementary materials.
Firstly, the concentration-time data collected for each individual compound from one of the investigated rat strains (Wistar or Lewis) were subjected to a non-compartmental analysis (NCA). Subsequently, pharmacokinetic models were developed for each investigated compound and strain of rat. One- and two- compartment models with linear or non-linear elimination were tested. […] The final models were chosen based on the goodness-of-fit criteria, such as Akaike Information Criterion (AIC), Schwarz Bayesian Criterion (SBC), weighted sum of squared residuals (WSSR), a visual inspection of fitting, and precision of estimated parameters expressed as coefficients of variation % (CVs%). NCA analysis was performed in Phoenix WinNonlin v. 7.0 (Pharsight Corp., a Certara Company, Princeton, New Jersey). Pharmacokinetic model parameters were estimated in ADAPT 5 software (BMSR, Los Angeles, CA) using the weighted least squares algorithm. Fraction of the dose absorbed (F) following an extravascular (EV) administration was calculated according to the Eq. 4:4 F=AUC0−tEV·DIV/AUC0−tIV·DEV where AUC0-t is the area under concentration versus time curve from 0 to the last measured point and D is dose.
The route of (±)-LSF administration was selected based on the results of our recent study, where SC route of administration was recognized as the most preferential for this compound ([20]). The concentration-time data for each of the investigated compounds were simultaneously fitted to obtain a single set of pharmacokinetic parameters.
The remaining symbols and parameters have been explained and defined in Fig. 2 and Table II.
Then, the samples were extracted with 1 mL of dichloromethane for 20 min using a VXR Vibrax shaker (IKA, Germany). Subsequently, all tubes were centrifuged (10 000×g, 8 min) using EBA 12 R centrifuge (Hettich, Germany). Organic layers were collected and transferred to clear propylene tubes and evaporated in water bath under a gentle stream of nitrogen at 37°C. Dry residues were then dissolved in 100 μL of mobile phase and subjected to the HPLC analysis. The HPLC system (LaChrom Elite, Merck-Hitachi, Germany) consisted of an L-2130 pump, an L-2200 autosampler, and an L-2420 UV-VIS detector. EZChrome Elite v. 3.2 (Merck-Hitachi, Germany) computer program was used for data acquisition and integration. The separation of GRMS-55 was performed using a LiChrospher 100 RP-18 (250×4 mm) column with a particle size of 5 μm protected with a LiChroCART (4×4 mm, RP-18) guard column (Merck, Germany). […] The separation of both investigated compounds was performed at ambient temperature. […] In turn, the retention time of GRMS-55 was 9.2 min. and that of its IS was 5.3 min.

[2] = system: TNF-α plasma levels in male Wistar rats with LPS-induced endotoxemia; experiment: LPS-induced endotoxemia in rats, PK/PD model of plasma TNF-α; format: in vivo, rat; conditions: for IC50: Rattus norvegicus, iv; for activity in inhibiting TNF-α release in vivo, times lower than that of rolipram: ratio of IC50 values to rolipram
Description: Male Wistar rats were implanted with catheters (SAI Infusion Technologies, USA) into the jugular vein and after a two-day recovery period they were administered with LPS dissolved in saline at a dose of 1 mg kg ^−1 into the tail vein simultaneously with one of the investigated compounds. […] The doses of the compounds were selected based on the literature data or results of our previous experiments. Each control group received LPS at the same IV dose and an appropriate volume of corresponding vehicle. […] The plasma samples were collected and stored at −80°C until analysis.
TNF-α levels in LPS-stimulated rat blood in vitro and in rat plasma samples from the in vivo studies were analyzed by the Rat TNF-α Quantikine ELISA Immunoassay Kit (R&D Systems, USA) according to the manufacturer’s instructions. The assay was linear at the range of 12.5–800 pg mL^−1. Levels of TNF-α in mice serum were measured by ELISA Kits for Tumor Necrosis Factor Alpha (Cloud-Clone Corp., USA). This assay was linear at the range of 15.6–1000 pg mL^−1. Absorbance was measured at 450 nm using a POLARstar Omega multi-mode microplate reader (BMG LABTECH, Germany).
PK/PD and PK/PD/DIS progression models were developed considering the mechanism of action of the investigated compounds, the mechanisms of disease progression in the case of CIA, and the subsequent stages leading to TNF-α release in the case of LPS-induced endotoxemia. Various numbers of transit compartments were tested during development of the models, and the final models were chosen based on the goodness-of-fit criteria, such as AIC, SBC, a visual inspection of the fitting, and parameter precision. Estimated values of pharmacokinetic parameters were fixed during PK/PD and PK/PD/DIS progression model fitting procedures. […] PK/PD and PK/PD/DIS progression modeling were performed in ADAPT 5 software using the weighted least squares algorithm.
Therefore, as a result of PK/PD analysis, three sets of pharmacodynamic parameters were obtained based on the data from the three individual experiments.
The applied model is a modified indirect response model ([19]) with implemented transit compartments (T1-T4) that describe the delay of the observed pharmacodynamic response. In this scheme τ is the mean transit time, kin is the time limited (from 0 to tlag) zero-order rate constant of production of a TNF-α precursor (e.g., TNF-α mRNA). Different numbers of transit compartments were tested during the model development, but the best fit was observed using four transit compartments.
All Imax values were fixed to 1.

[3] = read-out: IC50, concentration of compound producing 50% of Imax (inhibition of TNF-α release in vivo), Final estimate (CV%), plasma concentration, PK/PD model, Imax fixed to 1, male Wistar rats, LPS 1 mg kg^−1 IV, IV GRMS-55 20, rolipram 5, (±)-LSF and PTX 40 and 80 mg kg^−1
[4] = rat, plasma, other: GRMS-55 IV and IP, rolipram IP, female Lewis rats, read-out: half-life calculated as ln2·V1/Clt (elimination half-life)

fraction of the dose absorbed (F) ([1]; female Lewis rats, SC administration) [%] | volume of distribution, times lower in female Lewis rats compared to male Wistar rats ([1]; female Lewis vs male Wistar rats) [times] | half-life ([1]; rat, plasma, 80 mg kg^-1, female Lewis rats, SC administration, flip-flop pharmacokinetics, read-out: plasma terminal half-life) [min] | Vd ([1]; rat, plasma, other: IV and SC, female Lewis rats, (±)-LSF IV 40 and SC 80 mg kg^−1, read-out: VLSF, volume of distribution of (±)-LSF, Estimate (CV%)) [L/kg] | k el ([1]; rat, plasma, other: IV and SC, female Lewis rats, (±)-LSF IV and SC, read-out: kd, overall parent elimination rate constant, Estimate (CV%) (converted)) [s⁻¹] | fraction of the dose absorbed (F) ([1]; female Lewis rats, IP administration) [%] | Structure (SMILES) | IC50 [2, 3] [µg/mL] | potency in inhibiting TNF-α release in vivo, times stronger than PTX ([2]; ratio of IC50 values) | activity in inhibiting TNF-α release in vivo, times lower than that of rolipram [2] | Vd/F ([1]; female, Lewis, rat, plasma, ip, 10 mg/kg, read-out: V(ROL)/F, volume of distribution divided by fraction absorbed, Estimate (CV%)) [L/kg] | half-life [1, 4] [min] | IC50 ([2]; read-out: IC50, concentration of compound producing 50% of Imax (inhibition of TNF-α release in vivo), Final estimate (CV%)) [µg/mL]
95 | 3.3 | 23 | 0.37 | 0.00353 |  | CC(O)CCCCn1c(=O)c2c(ncn2C)n(C)c1=O (racemic) [(±)-LSF, lisofylline] | 5.8 (≈ 20.7 µM) | ~ 2.4 times | ~ 16 times |  |  | 
 |  |  |  |  |  | COc1ccc(C2CNC(=O)C2)cc1OC1CCCC1 (stereo not drawn) [Rolipram, rolipram] |  |  |  | 1.02 | 30 | 0.36 (≈ 1.31 µM)
 |  |  |  |  | 23 | Cn1c(=O)c2c(nc(NCCc3ccccc3)n2CCCC(=O)NN=Cc2ccccc2O)n(C)c1=O [GRMS-55, 4-(1,3-Dimethyl-2,6-dioxo-8-(phenethylamino)-2,3,6,7-tetrahydro-1H-purin-7-yl)-N′-(2-hydroxybenzylidene)butanehydrazide] | ~1.1 (≈ 2.18 µM) |  | ~ 3 times |  | 21 | 
